Literature values as cited in patent US12490952B2, “Combined sub-iliopsoas and subpectineal blocks—for hip surgery” (National Guard Health Affairs, priority 2020, dated 2025).

Details: local anesthetic, general background statement

CCN(CC)CCOC(=O)c1ccc(N)cc1Cl [Chloroprocaine]
duration of action (short-acting / intermediate duration): 45 to 90 min
